Reference: ChEMBL document CHEMBL3612037, “Design and synthesis of some new pyrazolyl-pyrazolines as potential anti-inflammatory, analgesic and antibacterial agents” (Eur J Med Chem, 2015)
Calls of active or inactive are those of the source. The calls are words filed in the database; no cut-off is given here.

How the values were obtained:
[1] = test system: Rattus norvegicus; experiment: Anti-inflammatory activity in Wistar rat assessed as inhibition of carrageenan-induced paw oedema at 50 mg/kg, po dosed 30 mins before carrageenan challenge and measured 30 mins post carrageenan challenge; format: functional
[2] = test system: Rattus norvegicus; experiment: Anti-inflammatory activity in Wistar rat assessed as inhibition of carrageenan-induced paw oedema at 50 mg/kg, po dosed 30 mins before carrageenan challenge and measured 60 mins post carrageenan challenge; format: functional
[3] = test system: Rattus norvegicus; experiment: Anti-inflammatory activity in Wistar rat assessed as inhibition of carrageenan-induced paw oedema at 50 mg/kg, po dosed 30 mins before carrageenan challenge and measured 120 mins post carrageenan challenge; format: functional
[4] = test system: Rattus norvegicus; experiment: Analgesic activity in Wistar rat assessed as tail flick latency time at 50 mg/kg, po measured 0 mins post dose by tail flick method (reference value: 3.5 +/- 0.8 secs); format: functional
[5] = test system: Rattus norvegicus; experiment: Analgesic activity in Wistar rat assessed as tail flick latency time at 50 mg/kg, po measured 30 mins post dose by tail flick method (reference value: 3.46 +/- 0.1 secs); format: functional
[6] = test system: Rattus norvegicus; experiment: Analgesic activity in Wistar rat assessed as tail flick latency time at 50 mg/kg, po measured 60 mins post dose by tail flick method (reference value: 3.47 +/- 0.1 secs); format: functional
[7] = test system: Rattus norvegicus; experiment: Analgesic activity in Wistar rat assessed as tail flick latency time at 50 mg/kg, po measured 90 mins post dose by tail flick method (reference value: 3.7 +/- 0.1 secs); format: functional
[8] = test system: Mus musculus; experiment: Acute toxicity in Swiss mouse assessed as induction of diarrhoea incidence at 100 to 1000 mg/kg, po measured 48 hrs post dose; format: organism-based; settings: in vivo
[9] = test system: Mus musculus; experiment: Acute toxicity in Swiss mouse assessed as induction of depression incidence at 100 to 1000 mg/kg, po measured 48 hrs post dose; format: organism-based; settings: in vivo
[10] = Acute toxicity in Swiss mouse at 100 to 1000 mg/kg, po measured 48 hrs post dose; format: organism-based; settings: in vivo
[11] = test system: Staphylococcus; experiment: Antimicrobial activity against Staphylococcus citreus at 20 uL of 1 mg/ml by disc diffusion assay; format: functional; settings: for zone of inhibition at 1000 µg/mL: read-out: IZ
[12] = test system: Staphylococcus aureus; experiment: Antimicrobial activity against Staphylococcus aureus at 20 uL of 1 mg/ml by disc diffusion assay; format: functional; settings: read-out: IZ
[13] = test system: Aeromonas hydrophila; experiment: Antimicrobial activity against Aeromonas hydrophila at 20 uL of 1 mg/ml by disc diffusion assay; format: functional; settings: for zone of inhibition at 1000 µg/mL: read-out: IZ
[14] = test system: Escherichia coli; experiment: Antimicrobial activity against Escherichia coli at 20 uL of 1 mg/ml by disc diffusion assay; format: functional; settings: for zone of inhibition at 1000 µg/mL: read-out: IZ

SMILES	inhibition in vivo at 50 mg/kg [1] [%]	inhibition in vivo at 50 mg/kg [2] [%]	inhibition in vivo at 50 mg/kg [3] [%]	Time [4] [s]	Time [5] [s]	Time [6] [s]	Time [7] [s]	Activity [8]	Activity [9]	LD50 at 48 h [10] [mg/kg]	zone of inhibition at 1000 µg/mL [11] [mm]	zone of inhibition at 1000 µg/mL [12] [mm]	inhibition zone (IZ) [13]	inhibition zone (IZ) [14]	inhibition zone (IZ) [11]	zone of inhibition at 1000 µg/mL [13] [mm]	zone of inhibition at 1000 µg/mL [14] [mm]
O=[N+]([O-])c1ccc(N2N=C(c3ccc(F)cc3)CC2c2cn(-c3ccccc3)nc2-c2ccc(Cl)c(Cl)c2)cc1 (stereo not drawn)	45.7	60.3	65.6	3.8	5.1	5.7	5.2	Non-toxic	Non-toxic	500	21	20	inactive	inactive			
O=CN1N=C(c2ccc(Cl)cc2)CC1c1cn(-c2ccccc2)nc1-c1ccc(Cl)c(Cl)c1 (stereo not drawn)	35.1	51.1	57.8	3	4.5	4.7	4.3	Non-toxic	Non-toxic	500	21	18	inactive	inactive			
Cc1ccc(C2=NN(c3ccccc3)C(c3cn(-c4ccccc4)nc3-c3ccc(Cl)c(Cl)c3)C2)cc1 (stereo not drawn)	46.8	58.8	62.5	3.3	6.7	7.1	6.6	Non-toxic	Non-toxic	500		15			inactive	18	20
Cc1ccc(C2=NN(c3ccc([N+](=O)[O-])cc3)C(c3cn(-c4ccccc4)nc3-c3ccc(Cl)c(Cl)c3)C2)cc1 (stereo not drawn)	57.4	72.5	71.9	3.4	7	7.4	6.6	Non-toxic	Non-toxic	500	16	21				19	16
CC(=O)N1N=C(c2ccc(Cl)cc2)CC1c1cn(-c2ccccc2)nc1-c1ccc(Cl)c(Cl)c1 (stereo not drawn)	45.7	57.2	66.4	3.5	5.5	5.9	5.1	Non-toxic	Non-toxic	500	13	21		inactive		19	
Fc1ccc(C2=NNC(c3cn(-c4ccccc4)nc3-c3ccc(Cl)c(Cl)c3)C2)cc1 (stereo not drawn)	45.7	40.5	46.1	3.1	4.5	4.8	4.2	Non-toxic	Non-toxic	500	23	14		inactive		16	
CCC(=O)N1N=C(c2ccc(C)cc2)CC1c1cn(-c2ccccc2)nc1-c1ccc(Cl)c(Cl)c1 (stereo not drawn)	29.8	61.1	70.3	3.3	5.3	6.4	5.9	Non-toxic	Non-toxic	500		24	inactive		inactive		22
